In ChEMBL document CHEMBL4725277, “Synthetic and therapeutic perspectives of nitrogen containing heterocycles as anti-convulsants” (Bioorg Med Chem, 2020):

Experiments:
[1] = Neurotoxicity in ip injected albino mouse; type: toxicity, organism-based; details: in vivo
[2] = Protective index, ratio of TD50 for neurotoxicity in ip injected albino mouse to ED50 for anticonvulsant activity in ip injected albino mouse assessed as protection against 50 mA current-induced seizure; type: toxicity, organism-based; details: in vivo
Mus musculus [3] = experiment: Anticonvulsant activity in ip injected albino mouse assessed as protection against 50 mA current-induced seizure by maximal electroshock seizure test; type: functional
Mus musculus [4] = species on record: Mus musculus; experiment: Anticonvulsant activity in albino mouse assessed as pentylenetetrazole-induced seizure; type: functional
Mus musculus [5] = species on record: Mus musculus; experiment: Anticonvulsant activity in mouse assessed as protection against current-induced seizure by maximal electroshock seizure test; type: functional
[6] = Neurotoxicity in mouse by rotarod test; type: toxicity; details: in vivo
[7] = Protective index, ratio of TD50 for neurotoxicity in mouse to ED50 for anticonvulsant activity in mouse assessed as protection against current-induced seizure; type: toxicity; details: in vivo, read-out: PI
[8] = Protective index, ratio of TD50 for neurotoxicity in mouse to ED50 for anticonvulsant activity in mouse assessed as protection against pentylenetetrazole-induced seizure; type: toxicity; details: in vivo, read-out: PI
Mus musculus [9] = species on record: Mus musculus; experiment: Anticonvulsant activity in albino mouse assessed as current-induced seizure relative to control; type: functional
Mus musculus [10] = species on record: Mus musculus; experiment: Anticonvulsant activity in albino mouse assessed as current-induced seizure latency time; type: functional
Mus musculus [11] = experiment: Anticonvulsant activity in albino mouse assessed as protection against 50 mA current-induced seizure at 50 mg/kg by maximal electroshock seizure test relative to control; type: functional
Mus musculus [12] = experiment: Anticonvulsant activity in albino mouse assessed as protection against 50 mA current-induced seizure at 100 mg/kg by maximal electroshock seizure test relative to control; type: functional
Mus musculus [13] = experiment: Anticonvulsant activity in albino mouse assessed as protection against 50 mA current-induced seizure at 200 mg/kg by maximal electroshock seizure test relative to control; type: functional
Mus musculus [14] = species on record: Mus musculus; experiment: Anticonvulsant activity in albino mouse assessed as protection against 50 mA current-induced seizure; type: functional; details: read-out: PD50
Mus musculus [15] = species on record: Mus musculus; experiment: Anticonvulsant activity in albino mouse assessed as pentylenetetrazole-induced seizure measured after 30 mins; type: functional; details: 0.5 h
Mus musculus [16] = experiment: Anticonvulsant activity in ip injected albino mouse assessed as protection against 50 mA current-induced seizure after 0.5 to 4 hrs interval by maximal electroshock seizure test; type: functional; details: time hrs 0.5-4
[17] = Protective index, ratio of TD50 for neurotoxicity in ip injected albino mouse to ED50 for anticonvulsant activity in albino mouse assessed as pentylenetetrazole-induced seizure; type: toxicity, organism-based; details: in vivo
[18] = Lipophilicity, log P of the compound; type: physicochemical; details: octanol/water
Mus musculus [19] = species on record: Mus musculus; experiment: Anticonvulsant activity in mouse assessed as protection against 50 mA current-induced seizure after 0.5 hrs by maximal electroshock seizure test; type: functional
[20] = Neurotoxicity in ip and po injected mouse; type: toxicity, organism-based; details: in vivo
[21] = Protective index, ratio of TD50 for neurotoxicity in ip and po injected mouse to ED50 for anticonvulsant activity in mouse assessed as protection against 50 mA current-induced seizure; type: toxicity, organism-based; details: in vivo, read-out: PI
[22] = Neurotoxicity in albino rat at 100 mg/kg, ip after 30 mins (reference value: 2%); type: toxicity, organism-based; details: in vivo, 0.5 h
Mus musculus [23] = species on record: Mus musculus; experiment: Anticonvulsant activity in KunMing mouse assessed as protection against 50 mA current-induced seizure after 30 mins interval by maximal electroshock seizure test; type: functional; details: 0.5 h
[24] = Neurotoxicity in KunMing mouse after 30 mins by rotarod test; type: toxicity; details: in vivo
Mus musculus [25] = species on record: Mus musculus; experiment: Anticonvulsant activity in KunMing mouse assessed as protection against 50 mA current-induced seizure after 0.5 to 4 hrs by maximal electroshock seizure test; type: functional; details: time hrs 0.5-4
Mus musculus [26] = species on record: Mus musculus; experiment: Anticonvulsant activity in KunMing mouse assessed as protection against current-induced seizure by maximal electroshock seizure test; type: functional
Mus musculus [27] = species on record: Mus musculus; experiment: Anticonvulsant activity in albino mouse assessed as protection against 50 mA current-induced seizure by maximal electroshock seizure test; type: functional
Mus musculus [28] = species on record: Mus musculus; experiment: Anticonvulsant activity in KunMing mouse assessed as protection against pentylenetetrazole-induced seizure by maximal electroshock seizure test; type: functional
[29] = Neurotoxicity in KunMing mouse by rotarod test; type: toxicity; details: in vivo
Mus musculus [30] = experiment: Anticonvulsant activity in albino mouse assessed as protection against 50 mA current-induced seizure at 10 mg/kg by maximal electroshock seizure test relative to control; type: functional
Mus musculus [31] = experiment: Anticonvulsant activity in albino mouse assessed as protection against 50 mA current-induced seizure at 20 mg/kg by maximal electroshock seizure test relative to control; type: functional
Mus musculus [32] = experiment: Anticonvulsant activity in albino mouse assessed as protection against 50 mA current-induced seizure at 30 mg/kg by maximal electroshock seizure test relative to control; type: functional
Mus musculus [33] = experiment: Anticonvulsant activity in albino mouse assessed as protection against 50 mA current-induced seizure at 25 mg/kg by maximal electroshock seizure test relative to control; type: functional

Nc1nc(-c2ccccc2)nnc1C(=O)N1CCCC1c1noc2cc(F)ccc12 (configuration not stated)
TD50 [1]: > 300 mg/kg
selectivity ratio ([2]; read-out: Ratio): > 48.4
ED50 (Mus musculus [3]): 6.2 mg/kg

CN(C)c1ccc(C2CC(c3ccccc3)=NC(=S)N2C(=S)Nc2ccccc2)cc1 (configuration not stated)
ED50 (Mus musculus [4]): 332 mg/kg
ED50 (Mus musculus [5]): 32.2 mg/kg
TD50 [6]: 580 mg/kg
selectivity ratio [7]: 18
selectivity ratio [8]: 1.7

CC(=O)Oc1cc2ccccc2cc1-c1nnc(N(C(C)=O)c2cccc(F)c2)s1
Activity (Mus musculus [9]): 70%
Time (Mus musculus [10]): 4.41 min

O=C(CNC(=O)c1ccncc1)Nn1c(COc2ccc(Cl)cc2Cl)nc2ccccc2c1=O
Activity (Mus musculus [11]): 50%
Activity (Mus musculus [12]): 70%
Activity (Mus musculus [13]): 80%
ED50 (Mus musculus [14]): 103 mg/kg

S=C1N=C(c2ccccc2)CC(c2ccccc2)N1c1ccc(Cl)cc1 (configuration not stated)
ED50 (Mus musculus [15]): 312 mg/kg
ED50 (Mus musculus [16]): 19.4 mg/kg
TD50 [1]: 420 mg/kg
selectivity ratio ([2]; read-out: PI): 21.6
selectivity ratio ([17]; read-out: PI): 1.3

COc1ccc(-c2nc(N/N=C/c3cccc(F)c3)[nH]c(=O)c2C#N)cc1
logP [18]: 2.13

Nc1nc(-c2ccccc2)nnc1C(=O)N1CCCC1c1noc2cc(Br)ccc12 (configuration not stated)
TD50 [1]: > 100 mg/kg
selectivity ratio ([2]; read-out: Ratio): > 8.22
ED50 (Mus musculus [3]): 12.2 mg/kg

O=c1c2ccccc2n2cnnc2n1-c1ccc(Br)cc1
ED50 (Mus musculus [19]): 26.89
TD50 [20]: > 700 mg/kg
selectivity ratio [21]: > 26

Nc1ccc(Cl)cc1-c1n[nH]c(=O)n(-c2ccc(O)cc2)c1=O
TD50 [1]: 682 mg/kg
selectivity ratio ([2]; read-out: Ratio): 13.6
selectivity ratio ([17]; read-out: Ratio): 7.15
ED50 (Mus musculus [3]): 51.1 mg/kg
ED50 (Mus musculus [4]): 95.3 mg/kg

Nc1nnc(C(=O)N2CCCC2c2noc3cc(F)ccc23)c(N)n1 (configuration not stated)
TD50 [1]: > 200 mg/kg
selectivity ratio ([2]; read-out: Ratio): > 28.2
ED50 (Mus musculus [3]): 7.1 mg/kg

CN(C)CCOc1ccc2c(c1)/C(=N/NC(N)=O)C(=O)N2
Activity [22]: 7%

CN(C)Nc1ccc(/C=N/Nc2nnc(-c3ccccc3)nc2Cc2ccc(Cl)cc2)cc1
ED50 (Mus musculus [15]): 83.9 mg/kg
ED50 (Mus musculus [16]): 46 mg/kg
TD50 [1]: 360 mg/kg
selectivity ratio ([2]; read-out: Ratio): 7.82
selectivity ratio ([17]; read-out: Ratio): 4.29

NC(=O)N1c2ccccc2C=Cc2ccccc21 [CARBAMAZEPINE]
ED50 (Mus musculus [15]): > 100 mg/kg
ED50 (Mus musculus [16]): 8.8 mg/kg
TD50 [1]: 65.5 mg/kg
ED50 (Mus musculus [4]): > 100 mg/kg
ED50 (Mus musculus [5]): 11.8 mg/kg
TD50 [6]: 11.8 mg/kg
ED50 (Mus musculus [23]): 10.1 mg/kg
TD50 at 0.5 h [24]: 69.1 mg/kg
ED50 (Mus musculus [25]): 9.8 mg/kg
ED50 (Mus musculus [26]): 11.8 mg/kg

CN1C(=O)CN=C(c2ccccc2)c2cc(Cl)ccc21 [DIAZEPAM]
ED50 (Mus musculus [15]): 0.7 mg/kg
Activity [22]: 88%
ED50 (Mus musculus [27]): 0.8 mg/kg

CCC1(C)CC(=O)NC1=O (configuration not stated) [ETHOSUXIMIDE]
selectivity ratio ([2]; read-out: Ratio): < 0.44
selectivity ratio ([17]; read-out: Ratio): 3.39
ED50 (Mus musculus [3]): > 1000 mg/kg
ED50 (Mus musculus [4]): 130 mg/kg
ED50 (Mus musculus [28]): 106 mg/kg
TD50 [29]: 343 mg/kg

CCC1(c2ccccc2)C(=O)NC(=O)NC1=O [PHENOBARBITAL]
Activity (Mus musculus [30]): 40%
Activity (Mus musculus [31]): 60%
Activity (Mus musculus [32]): 100%
ED50 (Mus musculus [14]): 14.4 mg/kg
ED50 (Mus musculus [5]): 21.8 mg/kg
ED50 (Mus musculus [25]): 21.8 mg/kg

O=C1N=C([O-])NC1(c1ccccc1)c1ccccc1.[Na+] [PHENYTOIN SODIUM]
Activity (Mus musculus [33]): 100%

O=C1NC(=O)C(c2ccccc2)(c2ccccc2)N1 [PHENYTOIN]
ED50 (Mus musculus [15]): > 100 mg/kg
ED50 (Mus musculus [16]): 8.8 mg/kg
ED50 (Mus musculus [4]): > 300 mg/kg

CCCC(CCC)C(=O)[O-].[Na+] [VALPROATE SODIUM]
ED50 (Mus musculus [16]): 272 mg/kg
TD50 [1]: 42.6 mg/kg

CCCC(CCC)C(=O)O [VALPROIC ACID]
Time (Mus musculus [10]): 7.2 min
